23 compounds from PubChem BioAssay AID316 (DTP/NCI, 2004) can be followed below.

Each structure is given as a SMILES string. Values joined by “and” are separate entries in the source; they are usually repeats but may differ in a detail not shown here. Equal entries are not always repeated. Inconclusive results and toxic doses are left out.

In this experiment the test system is P1534 leukemia ip, CD2F1 mice, survival T/C. Briefly: NCI In Vivo Anticancer Drug Screen. Data for tumor model P1534 Leukemia (intraperitoneal) in CD2F1 (CDF1) mice. The following applies: higher = longer survival. How it is done: The antitumor activity of compounds was measured in mice bearing transplantable tumors. Survival or tumor size were measured and the results are expressed as the measurement made in the treated group (T) divided by the measurement made in the vehicle treated control group (C). The tumor model used in this assay is P1534 Leukemia (intraperitoneal) in CD2F1 (CDF1) mice

[1] abbreviates: endpoint: mean survival time, dose: 3.75 mg/kg/injection, schedule: Q01DX010 (ip), vehicle: saline.
[2] abbreviates: endpoint: mean survival time, dose: 7.5 mg/kg/injection, schedule: Q01DX010 (ip), vehicle: saline.
[3] abbreviates: endpoint: mean survival time, dose: 15.0 mg/kg/injection, schedule: Q01DX010 (ip), vehicle: saline.
[4] abbreviates: endpoint: mean survival time, dose: 30.0 mg/kg/injection, schedule: Q01DX010 (ip), vehicle: saline.
Where [5] appears, read: endpoint: mean survival time, dose: 2.5 mg/kg/injection, schedule: Q01DX010 (ip), vehicle: saline.
Where [6] appears, read: endpoint: mean survival time, dose: 5.0 mg/kg/injection, schedule: Q01DX010 (ip), vehicle: saline.
[7] abbreviates: endpoint: mean survival time, dose: 10.0 mg/kg/injection, schedule: Q01DX010 (ip), vehicle: saline.
Setting [8] is: endpoint: mean survival time, dose: 25.0 mg/kg/injection, schedule: Q01DX010 (ip), vehicle: saline.
Setting [9] is: endpoint: mean survival time, dose: 15.6 mg/kg/injection, schedule: Q01DX010 (ip), vehicle: saline.
The mark [10] stands for this setting: endpoint: mean survival time, dose: 31.3 mg/kg/injection, schedule: Q01DX010 (ip), vehicle: saline.
The mark [11] stands for this setting: endpoint: mean survival time, dose: 62.5 mg/kg/injection, schedule: Q01DX010 (ip), vehicle: saline.
Setting [12] is: endpoint: mean survival time, dose: 125.0 mg/kg/injection, schedule: Q01DX010 (ip), vehicle: saline.
The mark [13] stands for this setting: endpoint: mean survival time, dose: 8.0 mg/kg/injection, schedule: Q01DX010 (ip), vehicle: saline.
Where [14] appears, read: endpoint: mean survival time, dose: 16.0 mg/kg/injection, schedule: Q01DX010 (ip), vehicle: saline.
Setting [15] is: endpoint: mean survival time, dose: 50.0 mg/kg/injection, schedule: Q01DX010 (ip), vehicle: saline.
[16] abbreviates: endpoint: mean survival time, dose: 100.0 mg/kg/injection, schedule: Q01DX010 (ip), vehicle: saline.
[17] abbreviates: endpoint: mean survival time, dose: 200.0 mg/kg/injection, schedule: Q01DX010 (ip), vehicle: saline.
Setting [18] is: endpoint: mean survival time, dose: 250.0 mg/kg/injection, schedule: Q01DX010 (ip), vehicle: saline.

In the case of `CC(C)=CCC1=C(O)c2ccccc2C(=O)C1=O`, the T/C is 102 % of control (endpoint: mean survival time, dose: 200.0 mg/kg/injection, schedule: Q01DX010 (oral), vehicle: other); 115 % of control (endpoint: mean survival time, dose: 300.0 mg/kg/injection, schedule: Q01DX010 (oral), vehicle: other); 112 % of control (endpoint: mean survival time, dose: 400.0 mg/kg/injection, schedule: Q01DX010 (oral), vehicle: other); 103 % of control (endpoint: mean survival time, dose: 600.0 mg/kg/injection, schedule: Q01DX010 (oral), vehicle: other).

As to `CN(C)[C@@H]1C(=O)C(C(N)=O)=C(O)[C@@]2(O)C(=O)C3=C(O)c4c(O)cccc4C[C@H]3C[C@@H]12`, the T/C is, setting by setting: under setting [1], 107 % of control; under setting [2], 107 % of control; under setting [3], 100 % of control; under setting [4], 103 % of control and 100 % of control.

Regarding `O=C(NCCCCC(NC(=O)OCc1ccccc1)C(=O)NCCCNCCCCNCCCNC(=O)C(CCCCNC(=O)OCc1ccccc1)NC(=O)OCc1ccccc1)OCc1ccccc1` (configuration not stated), the T/C is 100 % of control under setting [5], 100 % of control under setting [6] and 100 % of control under setting [7].

For `CCCCCCCCCCCCCCCCC(C(=O)O)C(O)(CC(=O)O)C(=O)O` (configuration not stated), the T/C under setting [8] was 88 % of control.

Consider `CC(=O)O[C@H]1C(=O)[C@@]2(C)[C@H]([C@H](OC(=O)c3ccccc3)[C@]3(O)C[C@H](OC(=O)[C@H](O)[C@@H](NC(=O)c4ccccc4)c4ccccc4)C(C)=C1C3(C)C)[C@]1(OC(C)=O)CO[C@@H]1C[C@@H]2O`, for which the T/C by setting is: (endpoint: mean survival time, dose: 1.88 mg/kg/injection, schedule: Q01DX010 (ip), vehicle: saline) 300 % of control; under setting [1], 300 % of control; under setting [2], 250 % of control; under setting [3], 89 % of control.

For `Clc1[nH]nc2ccccc12`, the T/C runs as follows: (endpoint: mean survival time, dose: 7.8 mg/kg/injection, schedule: Q01DX010 (ip), vehicle: saline) 100 % of control; under setting [9], 96 % of control; under setting [10], 96 % of control; under setting [11], 107 % of control and 100 % of control; under setting [12], 92 % of control.

For `C/C=C1/CN(C)C2Cc3c([nH]c4ccccc34)C(c3cc4[nH]c5c(c4cc3OC)CCN3CC4CC(C(C)O)C3C5(C(=O)OC)C4)CC1C2C(=O)OC` (configuration not stated), the T/C (endpoint: mean survival time, dose: 5.0 mg/kg/injection, schedule: Q01DX010 (ip), vehicle: water) was 98 % of control; the T/C (endpoint: mean survival time, dose: 10.0 mg/kg/injection, schedule: Q01DX010 (ip), vehicle: other) was 103 % of control; the T/C (endpoint: mean survival time, dose: 10.0 mg/kg/injection, schedule: Q01DX010 (ip), vehicle: water) is 96 % of control; the T/C (endpoint: mean survival time, dose: 15.0 mg/kg/injection, schedule: Q01DX010 (ip), vehicle: water) was 94 % of control; the T/C (endpoint: mean survival time, dose: 20.0 mg/kg/injection, schedule: Q01DX010 (ip), vehicle: other) was 92 % of control; the T/C (endpoint: mean survival time, dose: 20.0 mg/kg/injection, schedule: Q01DX010 (ip), vehicle: water) is 107 % of control. For the same compound, the T/C is, setting by setting: (endpoint: mean survival time, dose: 30.0 mg/kg/injection, schedule: Q01DX010 (ip), vehicle: other) 94 % of control; (endpoint: mean survival time, dose: 40.0 mg/kg/injection, schedule: Q01DX010 (ip), vehicle: other) 92 % of control.

Take `CCNc1nncs1`: the T/C was 100 % of control under setting [13] and 96 % of control under setting [14].

For the compound `NC(N)=NCCCC(N)C(=O)NCCCCCCNCCCCCCNC(=O)C(N)CCCN=C(N)N` (configuration not stated), the T/C under setting [6] is 107 % of control; the T/C under setting [7] was 96 % of control; the T/C (endpoint: mean survival time, dose: 20.0 mg/kg/injection, schedule: Q01DX010 (ip), vehicle: saline) was 100 % of control.

On to `Cc1cc2nc3c(=O)[nH]c(=O)nc-3n(CC(O)C(O)C(O)C(O)CO)c2cc1C` (configuration not stated), for which the T/C reads like this: under setting [8], 111 % of control; under setting [15], 107 % of control and 100 % of control; under setting [16], 107 % of control and 111 % of control; under setting [17], 111 % of control.

On to `CN(C)c1ccc(Nc2c3ccccc3nc3ccccc23)cc1`, for which the T/C (endpoint: mean survival time, dose: 36.0 mg/kg/injection, schedule: Q01DX010 (ip), vehicle: saline) was 121 % of control and the T/C (endpoint: mean survival time, dose: 80.0 mg/kg/injection, schedule: Q01DX010 (ip), vehicle: saline) is 92 % of control.

`C=C(C(=O)OC1CC2CCC(C1)N2C)c1ccccc1` (configuration not stated): the T/C was 92 % of control (endpoint: mean survival time, dose: 1.25 mg/kg/injection, schedule: Q01DX010 (ip), vehicle: saline); 92 % of control under setting [5]; 100 % of control under setting [6]; 107 % of control under setting [7].

In the case of `CC(=O)OC(C)(C)/C=C/C(=O)[C@](C)(O)[C@H]1[C@H](O)C[C@@]2(C)[C@@H]3CC=C4[C@@H](C[C@H](O)C(=O)C4(C)C)[C@]3(CO)C(=O)C[C@]12C`, the T/C was 103 % of control (endpoint: mean survival time, dose: 0.16 mg/kg/injection, schedule: Q01DX010 (ip), vehicle: saline); 107 % of control (endpoint: mean survival time, dose: 0.25 mg/kg/injection, schedule: Q01DX010 (ip), vehicle: saline); 103 % of control (endpoint: mean survival time, dose: 0.57 mg/kg/injection, schedule: Q01DX010 (ip), vehicle: saline).

Take `NCCCC(=O)NCCCCCCCCCCNC(=O)CCCN`: the T/C (endpoint: mean survival time, dose: 12.5 mg/kg/injection, schedule: Q01DX010 (ip), vehicle: saline) is 96 % of control; the T/C under setting [8] was 93 % of control; the T/C under setting [15] was 96 % of control; the T/C under setting [16] was 103 % of control.

`O=CN(O)CC(=O)O`: the T/C runs as follows: under setting [9], 100 % of control; under setting [10], 100 % of control; under setting [11], 100 % of control; under setting [12], 103 % of control.

Regarding `CN(Cc1cnc2nc(N)nc(N)c2n1)c1ccc(C(=O)N[C@@H](CCC(=O)O)C(=O)O)cc1`, the T/C by setting is: (endpoint: median survival time, dose: 0.5 mg/kg/injection, schedule: Q01DX009 (ip), vehicle: sodium bicarbonate) 158 % of control; (endpoint: median survival time, dose: 1.0 mg/kg/injection, schedule: Q01DX009 (ip), vehicle: sodium bicarbonate) 198 % of control.

Regarding `c1ccc(CNc2ncnc3[nH]ncc23)cc1`, the T/C reads like this: under setting [13], 100 % of control; under setting [14], 110 % of control; (endpoint: mean survival time, dose: 32.0 mg/kg/injection, schedule: Q01DX010 (ip), vehicle: saline) 120 % of control and 90 % of control; (endpoint: mean survival time, dose: 64.0 mg/kg/injection, schedule: Q01DX010 (ip), vehicle: saline) 105 % of control and 110 % of control.

Turning to `COc1ccc2c(c1OC)C(=O)O[C@@H]2[C@H]1c2c(cc3c(c2OC)OCO3)CCN1C`, the T/C runs as follows: under setting [10], 103 % of control; under setting [11], 92 % of control and 100 % of control; under setting [12], 100 % of control; under setting [18], 100 % of control.

As for `Nc1c(Br)cc2c(c1Br)Cc1cc([N+](=O)[O-])ccc1-2`, the T/C under setting [9] is 115 % of control; the T/C under setting [10] is 107 % of control and 110 % of control; the T/C under setting [11] is 107 % of control; the T/C under setting [12] was 110 % of control and 115 % of control; the T/C under setting [18] is 107 % of control.

For `O=c1cnn(C2OC(CO)C(O)C2O)c(=O)[nH]1` (configuration not stated), the T/C under setting [16] is 105 % of control and 107 % of control; the T/C under setting [17] was 105 % of control and 120 % of control; the T/C (endpoint: mean survival time, dose: 300.0 mg/kg/injection, schedule: Q01DX010 (ip), vehicle: saline) is 90 % of control and 94 % of control; the T/C (endpoint: mean survival time, dose: 400.0 mg/kg/injection, schedule: Q01DX010 (ip), vehicle: saline) is 103 % of control and 110 % of control; the T/C (endpoint: mean survival time, dose: 700.0 mg/kg/injection, schedule: Q01DX010 (ip), vehicle: saline) was 86 % of control and 89 % of control; the T/C (endpoint: mean survival time, dose: 800.0 mg/kg/injection, schedule: Q01DX010 (ip), vehicle: saline) is 93 % of control and 101 % of control. The T/C (endpoint: mean survival time, dose: 1600.0 mg/kg/injection, schedule: Q01DX010 (ip), vehicle: saline) was 88 % of control.

Turning to `CC1CCC(NC(=O)N(CCCl)N=O)CC1` (configuration not stated), the T/C is 111 % of control (endpoint: median survival time, dose: 1.0 mg/kg/injection, schedule: Q01DX005 (ip), vehicle: other); 255 % of control (endpoint: median survival time, dose: 4.0 mg/kg/injection, schedule: Q01DX005 (ip), vehicle: other); 255 % of control (endpoint: median survival time, dose: 8.0 mg/kg/injection, schedule: Q01DX005 (ip), vehicle: other); 115 % of control (endpoint: median survival time, dose: 16.0 mg/kg/injection, schedule: Q01DX005 (ip), vehicle: other).

Turning to `CC(/C=N/N=C(N)N)=N\NC(N)=S`, the T/C under setting [15] was 100 % of control, the T/C under setting [16] was 100 % of control and the T/C under setting [17] is 100 % of control.

With `C[N+](C)(C)c1ncnc2nc[nH]c12`, the T/C was 107 % of control under setting [3]; 110 % of control under setting [4]; 114 % of control (endpoint: mean survival time, dose: 60.0 mg/kg/injection, schedule: Q01DX010 (ip), vehicle: saline).
